In ChEMBL document CHEMBL4732090, “Preparation of new 1,3-dibenzyl tetrahydropyridinylidene ammonium salts and their antimicrobial and anticellular activities” (Eur J Med Chem, 2021):

Assays:
Plasmodium falciparum [1] = experiment: Antiplasmodial activity against Plasmodium falciparum NF54 erythrocytic stages assessed as reduction in [3H]hypoxanthine incorporation measured after 48 hrs by liquid scintillation counting method; type: functional, organism-based
Plasmodium falciparum [2] = experiment: Antiplasmodial activity against chloroquine and pyrimethamine resistant Plasmodium falciparum K1 strain; type: functional, organism-based
[3] = Selectivity index, ratio of IC50 for rat L6 cells to IC50 for Plasmodium falciparum NF54; type: toxicity; conditions: read-out: Ratio IC50
[4] = Selectivity index, ratio of IC50 for rat L6 cells to IC50 for chloroquine and pyrimethamine resistant Plasmodium falciparum K1; type: toxicity; conditions: read-out: Ratio IC50
[5] = system: Trypanosoma brucei rhodesiense; experiment: Trypanocidal activity against Trypanosoma brucei rhodesiense STIB900 incubated for 70 hrs by Alamar blue assay; type: functional, organism-based; conditions: STIB900, 70 h
[6] = Selectivity index, ratio of IC50 for rat L6 cells to IC50 for Trypanosoma brucei rhodesiense STIB900; type: toxicity; conditions: read-out: Ratio IC50
L6 = experiment: Cytotoxicity against rat L6 cells after 70 hrs by Alamar blue assay; type: cell-based; conditions: L6, 70 h, read-out: IC50
HCT-116 = experiment: Cytotoxicity against human HCT-116 cells assessed as inhibition of cell growth at 50 uM after 72 hrs by XTT assay relative to control; type: functional
U-251 = experiment: Cytotoxicity against human U-251 cells assessed as inhibition of cell growth at 50 uM after 72 hrs by XTT assay relative to control; type: functional
Staphylococcus aureus = experiment: Antibacterial activity against Staphylococcus aureus ATCC 29213 assessed as diameter of inhibition zone at 10 mg/ml by disk diffusion assay; type: functional; conditions: read-out: DIZ
[7] = system: Staphylococcus epidermidis; experiment: Antibacterial activity against Staphylococcus epidermis ATCC 12228 assessed as diameter of inhibition zone at 10 mg/ml by disk diffusion assay; type: functional; conditions: read-out: DIZ
Escherichia coli = experiment: Antibacterial activity against Escherichia coli ATCC 25922 assessed as diameter of inhibition zone at 10 mg/ml by disk diffusion assay; type: functional; conditions: read-out: DIZ
Pseudomonas aeruginosa = experiment: Antibacterial activity against Pseudomonas aeruginosa ATCC 27853 assessed as diameter of inhibition zone at 10 mg/ml by disk diffusion assay; type: functional; conditions: read-out: DIZ
Candida albicans = experiment: Antifungal activity against Candida albicans ATCC 90028 assessed as diameter of inhibition zone at 10 mg/ml by disk diffusion assay; type: functional; conditions: read-out: DIZ

Which IC50 (Plasmodium falciparum [1]) does the source give for `CC1(C)C(Cc2ccc(C(F)(F)F)cc2)C(=[N+]2CCCC2)C=CN1Cc1ccc(C(F)(F)F)cc1` (racemic) here?
Its IC50 is 8.3 nM.

What about the IC50 (Plasmodium falciparum [2]) of the same compound?
Its IC50 is 3.1 nM.

And the selectivity ratio [3]?
Its selectivity ratio is 3180.

What about the selectivity ratio [4] of the same compound?
Its selectivity ratio is 8520.

What about the IC50 [5] of the same compound?
The IC50 was 420 nM.

What about the selectivity ratio [6] of the same compound?
Its selectivity ratio is 62.9.

And the IC50 (L6)?
The IC50 was 26400 nM.

What about the inhibition at 50 µM (HCT-116) of the same compound?
Its inhibition at 50 µM is 100%.

What about the inhibition at 50 µM (U-251) of the same compound?
The inhibition at 50 µM was 100%.

And the zone of inhibition at 10000 µg/mL (Staphylococcus aureus)?
The zone of inhibition at 10000 µg/mL was 22 mm.

And the zone of inhibition at 10000 µg/mL [7]?
Its zone of inhibition at 10000 µg/mL is 31 mm.

What about the zone of inhibition at 10000 µg/mL (Escherichia coli) of the same compound?
Its zone of inhibition at 10000 µg/mL is 15 mm.

And the zone of inhibition at 10000 µg/mL (Pseudomonas aeruginosa)?
The zone of inhibition at 10000 µg/mL was 7 mm.

And the zone of inhibition at 10000 µg/mL (Candida albicans)?
The zone of inhibition at 10000 µg/mL was 25 mm.

With `CC1(C)C(Cc2ccc(Cl)cc2)C(=[N+]2CCCCC2)C=CN1Cc1ccc(Cl)cc1` (racemic) as the compound, how does the IC50 (Plasmodium falciparum [1]) read?
Its IC50 is 3.8 nM.

And the IC50 (Plasmodium falciparum [2])?
Its IC50 is 0.38 nM.

What about the selectivity ratio [3] of the same compound?
Its selectivity ratio is 2920.

What about the selectivity ratio [4] of the same compound?
The selectivity ratio was 29200.

What about the IC50 [5] of the same compound?
The IC50 was 140 nM.

And the selectivity ratio [6]?
Its selectivity ratio is 79.3.

What about the IC50 (L6) of the same compound?
The IC50 was 11100 nM.

What about the inhibition at 50 µM (HCT-116) of the same compound?
Its inhibition at 50 µM is 100%.

What about the inhibition at 50 µM (U-251) of the same compound?
Its inhibition at 50 µM is 100%.

What about the zone of inhibition at 10000 µg/mL (Staphylococcus aureus) of the same compound?
Its zone of inhibition at 10000 µg/mL is 22 mm.

And the zone of inhibition at 10000 µg/mL [7]?
The zone of inhibition at 10000 µg/mL was 28 mm.

What about the zone of inhibition at 10000 µg/mL (Escherichia coli) of the same compound?
Its zone of inhibition at 10000 µg/mL is 14 mm.

What about the zone of inhibition at 10000 µg/mL (Pseudomonas aeruginosa) of the same compound?
The zone of inhibition at 10000 µg/mL was 7 mm.

What about the zone of inhibition at 10000 µg/mL (Candida albicans) of the same compound?
Its zone of inhibition at 10000 µg/mL is 26 mm.
